From patent US8486382B2, “Method for treating cervical cancer” (ZymoGenetics, Inc., priority 2001, dated 2013) come the findings set out here.

In the assay the test system is HeLa229. The assay is described as follows: HeLa229 cytotoxicity assay (MTT readout). It counts as cell-based. Particulars: 72 hrs. How it is done:
We tested IL-20 in a HeLa229 cytotoxicity assay to measure the ability of IL-20 to prevent cells from growing during normal growth conditions. We used MTT reagent (Promega, Madison, WI USA) as our detection and readout for this inhibition assay. Procedure of a cytotoxicity assay:
Day 1—Plate cells out in complete growth media (with serum) at 5000 cells/well in a 96 well format and let them incubate overnight at 37 degrees and 5% CO2.
Day 2—Dump off media and add a dose response of appropriate ligands in complete growth media (IL-20, zmda1, and MDA7 at 10, 100, and 1000 ng/ml.), along with a positive control retinoic acid (100 uM) in complete growth media, while leaving some wells in complete growth media as controls of how the cells normally grow under normal conditions. Put the cells in incubator and let the assay go for 72 hrs.
Day 5—Add 15 ul/well of MTT reagent, let cells inc. for 4 hrs., then add 100 ul of stop solution, let cells inc. for an additional 1 hr., then read the plate on a multilabel counter (Victor2, PerkinElmer Life Sciences Inc., Boston). The MTT protocol will give you two readings, one at a 650 wavelength (background) and one at a 572 wavelength. Subtract the 650 reading from the 572 reading to get your actual output. These numbers are averaged and converted to a % inhibition value.

For orientation: inhibition means the percentage by which the read-out fell short of the control. Regarding `CC1=C(/C=C/C(C)=C/C=C/C(C)=C/C(=O)O)C(C)(C)CCC1` [Retnoic Acid, retinoic acid], the inhibition at 100 µM (Homo sapiens, HeLa 229, HeLa229 cells, retinoic acid 100 uM (positive control), read-out: inhibition of growth) was 53%.

B1: IL-20: Interleukin-20 (formally called Zcyto10); human polypeptide of 176 amino acids, SEQ ID NO:2 (protein, listed as Homo sapiens)
chain: MKASSLAFSLLSAAFYLLWTPSTGLKTLNLGSCVIATNLQEIRNGFSDIRGSVQAKDGNIDIRILRRTESLQDTKPANRCCLLRHLLRLYLDRVFKNYQTPDHYTLRKISSLANSFLTIKKDLRLCHAHMTCHCGEEAMKKYSQILSHFEKLEPQAAVVKALGELDILLQWMEETE
On to B1, for which, for the setting “HeLa229 cells, IL-20 dose response 10, 100, and 1000 ng/ml”, the “maximal inhibition of growth” value is reported as 20%.
